Assay results reported in patent US8530493B2, “Indolopyridines as Eg5 kinesin modulators” (4SC AG, priority 2006, dated 2013).

System: RKO p21 uninduced (proliferating) colon adenocarcinoma cells
Assay: Alamar Blue cell viability assay, RKO p21 uninduced (proliferating)
Format: cell-based
Details: Homo sapiens, Table B3, anti-proliferative/cytotoxic activity, 72 hours, read-out: −log EC50 RKO p21 uninduced (proliferating) (converted)
How it was run: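 Viability read by Alamar Blue fluorescence (ex 544, em 590 nm), normalised to untreated wells, after 72 h, 37° C, 5% CO2 compound exposure in triplicate. Cells were uninduced (no Ponasterone A), proliferating RKO colon carcinoma p27 or p21 subclones in DMEM with 10% FCS; values are −log EC50 (mol/l).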

Structure (SMILES) | EC50
C[C@@]12Cc3c([nH]c4ccc(Br)cc34)[C@@H](c3cccc(O)c3)N1C(=O)N(CCCN1CCCC1)C2=O (racemic) [Example 219, (3aSR,10RS)-6-Bromo-10-(3-hydroxy-phenyl)-3a-methyl-2-(3-pyrrolidin-1-yl-propyl)-3a,4,9,10-tetrahydro-2,9,10a-triaza-cyclopenta[b]fluorene-1,3-dione] | ≤ 0.0398 µM
CCN(CCOC)CCN1C(=O)N2[C@H](c3cccc(O)c3)c3[nH]c4cc(F)c(OC)cc4c3C[C@@]2(C)C1=O (racemic) [Example 454, (3aSR,10RS)-2-{2-[Ethyl-(2-methoxy-ethyl)-amino]-ethyl}-7-fluoro-10-(3-hydroxy-phenyl)-6-methoxy-3a-methyl-3a,4,9,10-tetrahydro-2,9,10a-triaza-cyclopenta[b]fluorene-1,3-dione] | 0.0398 to 0.251 µM
CCOc1ccc2[nH]c3c(c2c1)C[C@@]1(C)C(=O)N(CCCN2CCN(C)CC2)C(=O)N1[C@@H]3c1cccc(O)c1 (racemic) [Example 229, (3aSR,10RS)-6-Ethoxy-10-(3-hydroxy-phenyl)-3a-methyl-2-[3-(4-methyl-piperazin-1-yl)-propyl]-3a,4,9,10-tetrahydro-2,9,10a-triaza-cyclopenta[b]fluorene-1,3-dione] | 0.0398 to 0.251 µM
COCCNCCN1C(=O)N2[C@H](c3cccc(O)c3)c3[nH]c4ccc(Br)cc4c3C[C@@]2(C)C1=O (racemic) [Example 377, (3aSR,10RS)-6-Bromo-10-(3-hydroxy-phenyl)-2-[2-(2-methoxy-ethylamino)-ethyl]-3a-methyl-3a,4,9,10-tetrahydro-2,9,10a-triaza-cyclopenta[b]fluorene-1,3-dione] | ≤ 0.0398 µM
C[C@@]12Cc3c([nH]c4ccc(OC(F)F)cc34)[C@@H](c3cccc(O)c3)N1C(=O)N(CCN1CC=CCC1)C2=O (racemic) [Example 281, (3aSR,10RS)-6-(1,1-Difluoro-methoxy)-2-[2-(3,6-dihydro-2H-pyridin-1-yl)-ethyl]-10-(3-hydroxy-phenyl)-3a-methyl-3a,4,9,10-tetrahydro-2,9,10a-triaza-cyclopenta[b]fluorene-1,3-dione] | 0.0398 to 0.251 µM
CN1CCN(CCCN2C(=O)N3[C@H](c4cccc(O)c4)c4[nH]c5ccc(Br)cc5c4C[C@@]3(C)C2=O)CC1 (racemic) [Example 375, (3aSR,10RS)-6-Bromo-10-(3-hydroxy-phenyl)-3a-methyl-2-[3-(4-methyl-piperazin-1-yl)-propyl]-3a,4,9,10-tetrahydro-2,9,10a-triaza-cyclopenta[b]fluorene-1,3-dione] | ≤ 0.0398 µM
C[C@@]12Cc3c([nH]c4cc(F)c(Cl)cc34)[C@@H](c3cccc(O)c3)N1C(=O)N(CCN1CCCCCC1)C2=O (racemic) [Example 361, (3aSR,10RS)-2-(2-Azepan-1-yl-ethyl)-6-chloro-7-fluoro-10-(3-hydroxy-phenyl)-3a-methyl-3a,4,9,10-tetrahydro-2,9,10a-triaza-cyclopenta[b]fluorene-1,3-dione] | 0.0398 to 0.251 µM
CCN(CCO)CCN1C(=O)N2[C@H](c3cccc(O)c3)c3[nH]c4cc(F)c(OC)cc4c3C[C@@]2(C)C1=O (racemic) [Example 451, (3aSR,10RS)-2-{2-[Ethyl-(2-hydroxy-ethyl)-amino]-ethyl}-7-fluoro-10-(3-hydroxy-phenyl)-6-methoxy-3a-methyl-3a,4,9,10-tetrahydro-2,9,10a-triaza-cyclopenta[b]fluorene-1,3-dione] | 0.0398 to 0.251 µM
CC(C)N(C)CCN1C(=O)N2[C@H](c3cccc(O)c3)c3[nH]c4cc(F)c(Cl)cc4c3C[C@@]2(C)C1=O (racemic) [Example 352, (3aSR,10RS)-6-Chloro-7-fluoro-10-(3-hydroxy-phenyl)-2-[2-(isopropyl-methyl-amino)-ethyl]-3a-methyl-3a,4,9,10-tetrahydro-2,9,10a-triaza-cyclopenta[b]fluorene-1,3-dione] | ≤ 0.0398 µM
CCOc1ccc2[nH]c3c(c2c1)C[C@@]1(C)C(=O)N(CCN2CCC(C)CC2)C(=O)N1[C@@H]3c1cccc(O)c1 (racemic) [Example 302, (3aSR,10RS)-6-Ethoxy-10-(3-hydroxy-phenyl)-3a-methyl-2-[2-(4-methyl-piperidin-1-yl)-ethyl]-3a,4,9,10-tetrahydro-2,9,10a-triaza-cyclopenta[b]fluorene-1,3-dione] | 0.0398 to 0.251 µM
CCOc1ccc2[nH]c3c(c2c1)C[C@@]1(C)C(=O)N(CCNC(C)C)C(=O)N1[C@@H]3c1cccc(O)c1 (racemic) [Example 152, (3aSR,10RS)-6-Ethoxy-10-(3-hydroxy-phenyl)-2-(2-isopropylamino-ethyl)-3a-methyl-3a,4,9,10-tetrahydro-2,9,10a-triaza-cyclopenta[b]fluorene-1,3-dione] | ≤ 0.0398 µM
COc1cc2c3c([nH]c2cc1F)[C@@H](c1cccc(O)c1)N1C(=O)N(CCNC(C)C)C(=O)[C@]1(C)C3 (racemic) [Example 250, (3aSR,10RS)-7-Fluoro-10-(3-hydroxy-phenyl)-2-(2-isopropylamino-ethyl)-6-methoxy-3a-methyl-3a,4,9,10-tetrahydro-2,9,10a-triaza-cyclopenta[b]fluorene-1,3-dione] | ≤ 0.0398 µM
CCOc1ccc2[nH]c3c(c2c1)C[C@@]1(C)C(=O)N(CCCN(C)CCO)C(=O)N1[C@@H]3c1cccc(O)c1 (racemic) [Example 193, (3aSR,10RS)-6-Ethoxy-2-{3-[(2-hydrox-ethyl)-methyl-amino]-propyl}-10-(3-hydroxy-phenyl)-3a-methyl-3a,4,9,10-tetrahydro-2,9,10a-triaza-cyclopenta[b]fluorene-1,3-dione] | 0.0398 to 0.251 µM
CNCCN1C(=O)N2[C@H](c3cccc(O)c3)c3[nH]c4cc(F)c(Cl)cc4c3C[C@@]2(C)C1=O (racemic) [Example 337, (3aSR,10RS)-6-Chloro-7-fluoro-10-(3-hydroxy-phenyl)-3a-methyl-2-(2-methylamino-ethyl)-3a,4,9,10-tetrahydro-2,9,10a-triaza-cyclopenta[b]fluorene-1,3-dione] | ≤ 0.0398 µM
C[C@@]12Cc3c([nH]c4ccc(OC(F)F)cc34)[C@@H](c3cccc(O)c3)N1C(=O)N(CCNC1CC1)C2=O (racemic) [Example 286, (3aSR,10RS)-2-(2-Cyclopropylamino-ethyl)-6-(1,1-difluoro-methoxy)-10-(3-hydroxy-phenyl)-3a-methyl-3a,4,9,10-tetrahydro-2,9,10a-triaza-cyclpenta[b]fluorene-1,3-dione] | 0.0398 to 0.251 µM
CCNCCN1C(=O)N2[C@H](c3cccc(O)c3)c3[nH]c4ccc(Br)cc4c3C[C@@]2(C)C1=O (racemic) [Example 393, (3aSR,10RS)-6-Bromo-2-(2-ethylamino-ethyl)-10-(3-hydroxy-phenyl)-3a-methyl-3a,4,9,10-tetrahydro-2,9,10a-triaza-cyclopenta[b]fluorene-1,3-dione] | ≤ 0.0398 µM
CCOc1ccc2[nH]c3c(c2c1)C[C@@]1(C)C(=O)N(CCN2CCCCC2)C(=O)N1[C@@H]3c1cccc(O)c1 (racemic) [Example 164, (3aSR,10RS)-6-Ethoxy-10-(3-hydroxy-phenyl)-3a-methyl-2-(2-piperidin-1-yl-ethyl)-3a,4,9,10-tetrahydro-2,9,10a-triaza-cyclopenta[b]fluorene-1,3-dione] | 0.0398 to 0.251 µM
CC(C)(C)NCCN1C(=O)N2[C@H](c3cccc(O)c3)c3[nH]c4ccc(OC(F)F)cc4c3C[C@@]2(C)C1=O (racemic) [Example 273, (3aSR,10RS)-2-(2-tert-Butylamino-ethyl)-6-(1,1-difluoro-methoxy)-10-(3-hydroxy-phenyl)-3a-methyl-3a,4,9,10-tetrahydro-2,9,10a-triaza-cyclopenta[b]fluorene-1,3-dione] | ≤ 0.0398 µM
CC(C)CNCCCN1C(=O)N2[C@H](c3cccc(O)c3)c3[nH]c4ccc(Br)cc4c3C[C@@]2(C)C1=O (racemic) [Example 213, (3aSR,10RS)-6-Bromo-10-(3-hydroxy-phenyl)-2-(3-isobutylamino-propyl)-3a-methyl-3a,4,9,10-tetrahydro-2,9,10a-triaza-cyclopenta[b]fluorene-1,3-dione] | ≤ 0.0398 µM
C[C@@]12Cc3c([nH]c4cc(F)c(Cl)cc34)[C@@H](c3cccc(O)c3)N1C(=O)N(CCCNC1CCC1)C2=O (racemic) [Example 463, (3aSR,10RS)-6-Chloro-2-(3-cyclobutylamino-propyl)-7-fluoro-10-(3-hydroxy-phenyl)-3a-methyl-3a,4,9,10-tetrahydro-2,9,10a-triaza-cyclopenta[b]fluorene-1,3-dione] | 0.0398 to 0.251 µM
CC(C)(C)NCCCN1C(=O)N2[C@H](c3cccc(O)c3)c3[nH]c4cc(F)c(Cl)cc4c3C[C@@]2(C)C1=O (racemic) [Example 464, (3aSR,10RS)-2-(3-tert-Butylamino-propyl)-6-chloro-7-fluoro-10-(3-hydroxy-phenyl)-3a-methyl-3a,4,9,10-tetrahydro-2,9,10a-triaza-cyclopenta[b]fluorene-1,3-dione] | 0.0398 to 0.251 µM
CN1CCN(CCCN2C(=O)N3[C@H](c4cccc(O)c4)c4[nH]c5ccc(OC(F)F)cc5c4C[C@@]3(C)C2=O)CC1 (racemic) [Example 240, (3aSR,10RS)-6-(1,1-Difluoro-methoxy)-10-(3-hydroyx-phenyl)-3a-methyl-2-[3-(4-methyl-piperazin-1-yl)-propyl]-3a,4,9,10-tetrahydro-2,9,10a-triaza-cyclopenta[b]fluorene-1,3-dione] | 0.0398 to 0.251 µM
C[C@@]12Cc3c([nH]c4ccc(Br)cc34)[C@@H](c3cccc(O)c3)N1C(=O)N(CCCNC1CCC1)C2=O (racemic) [Example 369, (3aSR,10RS)-6-Bromo-2-(3-cyclobutylamino-propyl)-10-(3-hydroxy-phenyl)-3a-methyl-3a,4,9,10-tetrahydro-2,9,10a-triaza-cyclopenta[b]fluorene-1,3-dione] | ≤ 0.0398 µM
CCNCCN1C(=O)N2[C@H](c3cccc(O)c3)c3[nH]c4ccc(OC)c(F)c4c3C[C@@]2(C)C1=O (racemic) [Example 407, (3aSR,10RS)-2-(2-Ethylamino-ethyl)-5-fluoro-10-(3-hydroxy-phenyl)-6-methoxy-3a-methyl-3a,4,9,10-tetrahydro-2,9,10a-triaza-cyclopenta[b]fluorene-1,3-dione] | 0.0398 to 0.251 µM
